Where two headings read alike, the source gives them in different places.

This experiment relates to TNFα. Briefly: IRAK4 Monocyte TNFα Cell Based Assay. Set-up: species or system human. How it is done:
IRAK4 Monocyte TNFα Cell Based Assay Procedure:
The cell suspension was then plated at a density of 5,000 cells/well onto black 384 well Greiner clear bottom plates. Plates were pre-spotted with test compounds and serially diluted in DMSO where 40 nL/well were delivered using the Echo 550 acoustic liquid dispenser (Labcyte®) for a final DMSO concentration of 0.1%. Plated cells were treated with compound for 1 hour at 37° C. Cells were then stimulated with 50 pg/ml of LPS (Sigma) excluding outside columns of plate used for unstimulated cell control wells. Cells were incubated for an additional 4 hours at 37° C. Cells were then spun out of the media and 5 μl of sample were taken and analyzed for total TNFα content using the TR-FRET Human TNFα detection system (CisBio). This system utilizes two labeled antibodies (cryptate and XL665) that bind to two different epitopes of the TNFα molecule and produce FRET signal proportional to the concentration of TNFα in the sample. Detection antibodies are mixed 50:50 and 5 μL were dispensed into each well. Plates were covered with clear seals and incubated at room temp overnight. […] Percent of control was calculated as follows: % Control=100×(Ratiosample−Ratio0% stimulation)/(Ratio100% Stimulation−Ratio0% Stimulation) where unstimulated cells (0% stimulation) were the negative control and stimulated cells (100% stimulation) were used as the positive control.

Setting [1] is: human monocytes, second part of Table 2, compounds 33-343, unit inferred, read-out: EC50 MONO TNF HTRF.

With `CC(=O)N[C@H]1[C@@H]2C[C@H]1CN(c1nnc(-c3cnc(-c4ccc5cc(C#N)cnn45)cc3NC(C)C)s1)C2` [Example 45], the EC50 under setting [1] is 11.8 nM.

In the case of `C[C@H](C#N)Nc1cc(-c2ccc3cc(C#N)cnn23)ncc1-c1nnc(N2CC3CC(C2)N3C(=O)C(C)(C)O)s1` [Example 115], the EC50 under setting [1] was found to be 3.5 nM.

On to `CC(C)Nc1cc(-c2ccc3cc(C#N)cnn23)ncc1-c1nnc(N2CCCC2)s1` [Example 29, 7-(4-(isopropylamino)-5-(5-(pyrrolidin-1-yl)-1,3,4-thiadiazol-2-yl)pyridin-2-yl)pyrrolo[1,2-b]pyridazine-3-carbonitrile], for which, for the setting “Homo sapiens, Monocyte, human monocytes, LPS stimulated, compounds 1-32, read-out: EC50 TNF”, the concentration giving a half-maximal response (EC50) amounted to 4180 nM.

Take `CC(=O)N[C@H]1[C@@H]2CCC[C@H]1CN(c1nnc(-c3cnc(-c4ccc5cc(C#N)cnn45)cc3NC(C)C)s1)C2` [Example 165, N-((1R,5S,9r)-3-(5-(6-(3-cyanopyrrolo[1,2-b]pyridazin-7-yl)-4-(isopropylamino)pyridin-3-yl)-1,3,4-thiadiazol-2-yl)-3-azabicyclo[3.3.1]nonan-9-yl)acetamide]: under setting [1], the EC50 is 39.1 nM.

For the compound `COC(=O)N1CCN(C(=O)N[C@@H]2[C@@H]3CC[C@H]2CN(c2nnc(-c4cnc(-c5ccc6cc(C#N)cnn56)cc4NC(C)C)s2)C3)CC1` [Example 105, methyl 4-(((1R,5S,8s)-3-(5-(6-(3-cyanopyrrolo[1,2-b]pyridazin-7-yl)-4-(isopropylamino)pyridin-3-yl)-1,3,4-thiadiazol-2-yl)-3-azabicyclo[3.2.1]octan-8-yl)carbamoyl)piperazine-1-carboxylate], under setting [1], the EC50 is 4.2 nM.

For the compound `CC(C)Nc1cc(-c2ccc3cc(C#N)cnn23)ncc1-c1nnc(N2C[C@H]3CC[C@@H](C2)[C@@H]3NC(=O)C(=O)N=S(C)(C)=O)s1` [Example 103, N1-((lR,5S,8s)-3-(5-(6-(3-cyanopyrrolo[1,2-b]pyridazin-7-yl)-4-(isopropylamino)pyridin-3-yl)-1,3,4-thiadiazol-2-yl)-3-azabicyclo[3.2.1]octan-8-yl)-N2-(dimethyl(oxo)-16-sulfanylidene)oxalamide], under setting [1], the half-maximal effective concentration (EC50) is 1.4 nM.

As to `CC(C)Nc1cc(-c2ccc3cc(C#N)cnn23)ncc1-c1nnc(N2C[C@H]3CC[C@@H](C2)[C@@H]3NC(=O)C2(C)CCOCC2)s1` [Example 95, N-((1R,5S,8s)-3-(5-(6-(3-cyanopyrrolo[1,2-b]pyridazin-7-yl)-4-(isopropylamino)pyridin-3-yl)-1,3,4-thiadiazol-2-yl)-3-azabicyclo[3.2.1]octan-8-yl)-4-methyltetrahydro-2H-pyran-4-carboxamide], the EC50 under setting [1] was 4.1 nM.

Turning to `CC(C)Nc1cc(-c2ccc3cc(C#N)cnn23)ncc1-c1nnc(N2C[C@H]3CC[C@@H](C2)[C@@H]3N2CCOC2=O)s1` [Example 301, 7-(4-(isopropylamino)-5-(5-((1R,5S,8s)-8-(2-oxooxazolidin-3-yl)-3-azabicyclo[3.2.1]octan-3-yl)-1,3,4-thiadiazol-2-yl)pyridin-2-yl)pyrrolo[1,2-b]pyridazine-3-carbonitrile], the EC50 under setting [1] was 4.9 nM.

With `COC(=O)N[C@H]1CC[C@H](Nc2cc(-c3ccc4cc(C#N)cnn34)ncc2-c2nnc(N3C[C@H]4CC[C@@H](C3)[C@@H]4NC(C)=O)s2)CC1` [Example 54, methyl ((1R,4r)-4-((5-(5-((1R,5S,8S)-8-acetamido-3-azabicyclo[3.2.1]octan-3-yl)-1,3,4-thiadiazol-2-yl)-2-(3-cyanopyrrolo[1,2-b]pyridazin-7-yl)pyridin-4-yl)amino)cyclohexyl)carbamate], the EC50 under setting [1] was found to be 2.4 nM.

Regarding `C[C@H](C#N)Nc1cc(-c2ccc3cc(C#N)cnn23)ncc1-c1nnc(N2C[C@H]3CC[C@@H](C2)[C@@H]3NC(=O)C(C)(C)O)s1` [Example 86], under setting [1], the EC50 is 0.6 nM.

For `CC(=O)N[C@@H]1[C@@H]2CC[C@H]1CN(c1nnc(-c3cnc(-c4ccc5cc(C#N)cnn45)cc3NC3COC3)s1)C2` [Example 184], the half-maximal effective concentration (EC50) under setting [1] came to 2.4 nM.

As to `N#Cc1cnn2c(-c3cc(NC4COC4)c(-c4nnc([C@H]5CC[C@H](NC(=O)C6CC6)CC5)s4)cn3)ccc2c1` [Example 135, N-((1r,4r)-4-(5-(6-(3-cyanopyrrolo[1,2-b]pyridazin-7-yl)-4-(oxetan-3-ylamino)pyridin-3-yl)-1,3,4-thiadiazol-2-yl)cyclohexyl)cyclopropanecarboxamide], under setting [1], the EC50 stood at 10.5 nM.

On to `CC(C)Nc1cc(-c2ccc3cc(C#N)cnn23)ncc1-c1nnc(N2C[C@H]3CC[C@@H](C2)[C@@H]3NC(=O)N2CCOCC2)s1` [Example 57, N-((1R,5S,8s)-3-(5-(6-(3-cyanopyrrolo[1,2-b]pyridazin-7-yl)-4-(isopropylamino)pyridin-3-yl)-1,3,4-thiadiazol-2-yl)-3-azabicyclo[3.2.1]octan-8-yl)morpholine-4-carboxamide], for which, under setting [1], the EC50 was 6.8 nM.

On to `CC(C)Nc1cc(-c2ccc3cc(C#N)cnn23)ncc1-c1nnc([C@H]2CC[C@H](NC(=O)N3CCOCC3)CC2)s1` [Example 139, N-((1r,4r)-4-(5-(6-(3-cyanopyrrolo[1,2-]Apyridazin-7-yl)-4-(isopropylamino)pyridin-3-yl)-1,3,4-thiadiazol-2-yl)cyclohexyl)morpholine-4-carboxamide], for which the EC50 under setting [1] came out at 5.9 nM.

Take `CC(=O)N[C@H]1[C@@H]2CC[C@H]1CN(c1nnc(-c3cnc(-c4ccc5cc(C#N)cnn45)cc3NC(C)C)s1)C2` [Example 39]: under setting [1], the 50% effective concentration (EC50) came to 10.4 nM.

As for `CC(=O)N[C@H]1C[C@H](c2nnc(-c3cnc(-c4ccc5cc(C#N)cnn45)cc3NC3COC3)s2)C1` [Example 202], the EC50 under setting [1] stood at 166 nM.

In the case of `CC(=O)N[C@@H]1CCN(c2nnc(-c3cnc(-c4ccc5cc(C#N)cnn45)cc3NC(C)C)s2)C1` [Compound 330], the concentration for a half-maximal effect (EC50) under setting [1] is 47.1 nM.

As for `CC(=O)N1CCC2(CC1)CN(c1nnc(-c3cnc(-c4ccc5cc(C#N)cnn45)cc3NC(C)C)s1)C2` [Example 67, 7-(5-(5-(7-acetyl-2,7-diazaspiro[3.5]nonan-2-yl)-1,3,4-thiadiazo1-2-yl)-4-(isopropylamino)pyridin-2-yl)pyrrolo[1,2-b]pyridazine-3-carbonitrile], the half-maximal effective concentration (EC50) under setting [1] came to 10.4 nM.

Regarding `CC(=O)N[C@@H]1C[C@H]2COC[C@@H](C1)N2c1nnc(-c2cnc(-c3ccc4cc(C#N)cnn34)cc2NC(C)C)s1` [Example 209, N-((1R,5S,7r)-9-(5-(6-(3-cyanopyrrolo[1,2-b]pyridazin-7-yl)-4-(isopropylamino)pyridin-3-yl)-1,3,4-thiadiazol-2-yl)-3-oxa-9-azabicyclo[3.3.1]nonan-7-yl)acetamide], the EC50 under setting [1] worked out at 9.6 nM.

Regarding `CN1CCN(C(=O)N2C3CC2CN(c2nnc(-c4cnc(-c5ccc6cc(C#N)cnn56)cc4NC4(C)COC4)s2)C3)CC1` [Example 114, 7-(4-((3-methyloxetan-3-yl)amino)-5-(5-(6-(4-methylpiperazine-1-carbonyl)-3,6-diazabicyclo[3.1.1]heptan-3-yl)-1,3,4-thiadiazol-2-yl)pyridin-2-yl)pyrrolo[1,2-b]pyridazine-3-carbonitrile], the EC50 (Homo sapiens, Monocyte, read-out: EC50 MONO TNF HTRF) came out at 24.4 nM.

As for `COC(=O)NC[C@H]1C[C@H](Nc2cc(-c3ccc4cc(C#N)cnn34)ncc2-c2nnc(N3CCN4CCOC[C@H]4C3)s2)C1` [Example 51, methyl (((1R,3r)-3-((2-(3-cyanopyrrolo[1,2-b]pyridazin-7-yl)-5-(5-((R)-hexahydropyrazino[2,1-c][1,4]oxazin-8(1H)-yl)-1,3,4-thiadiazol-2-yl)pyridin-4-yl)amino)cyclobutyl)methyl)carbamate], the EC50 under setting [1] is 4.7 nM.

Regarding `CC(C)Nc1cc(-c2ccc3cc(C#N)cnn23)ncc1-c1nnc(N2CCN(C3COC3)CC2)s1` [Example 304], the EC50 under setting [1] worked out at 9.8 nM.

Regarding `CC(C)Nc1cc(-c2ccc3cc(C#N)cnn23)ncc1-c1nnc(N2CCC(C)(O)CC2)s1` [Example 287, 7-(5-(5-(4-hydroxy-4-methylpiperidin-l-yl)-1,3,4-thiadiazol-2-yl)-4-(isopropylamino)pyridin-2-yl)pyrrolo[1,2-b]pyridazine-3-carbonitrile], the EC50 under setting [1] was 9.8 nM.

Take `CN1CCC(C(=O)N[C@@H]2[C@@H]3CC[C@H]2CN(c2nnc(-c4cnc(-c5ccc6cc(C#N)cnn56)cc4NC4(C)COC4)s2)C3)CC1` [Example 119, N-((1R,5S,8s)-3-(5-(6-(3-cyanopyrrolo[1,2-b]pyridazin-7-yl)-4-((3-methyloxetan-3-yl)amino)pyridin-3-yl)-1,3,4-thiadiazol-2-yl)-3-azabicyclo[3.2.1]octan-8-yl)-1-methylpiperidine-4-carboxamide]: under setting [1], the EC50 came out at 1.2 nM.

`CC(=O)N[C@]1(C)[C@@H]2CC[C@H]1CN(c1nnc(-c3cnc(-c4ccc5cc(C#N)cnn45)cc3NC(C)C)s1)C2` [Example 155]: the EC50 under setting [1] is 7.4 nM.

As for `CC(=O)N[C@]1(C)[C@@H]2CC[C@H]1CN(c1nnc(-c3cnc(-c4ccc5cc(C#N)cnn45)cc3N[C@H](C)C#N)s1)C2` [Example 157, N-((1R,5S,8S)-3-(5-(4-((R)-1-cyanoethypamino)-6-(3-cyanopyrrolo[1,2-b]pyridazin-7-yl)pyridin-3-yl)-1,3,4-thiadiazol-2-yl)-8-methyl-3-azabicyclo[3.2.1]octan-8-yl)acetamide], the EC50 under setting [1] amounted to 1.8 nM.

The values above are taken from patent publication US11046686B2, “Thiadiazole IRAK4 compounds” (Gilead Sciences, Inc., priority 2018, dated 2021).
